Experimental data reported in patent publication US20190022152A1, “MICROBIOME RESPONSE TO AGENTS” (Yeda Research and Development Co., Ltd., priority 2014, published 2019).

Assays:
[1] = test system: fecal matter from naïve mice; test: In vitro anaerobic culturing of fecal matter with saccharin; assay type: cell-based; conditions: anaerobic culture with saccharin 5 mgml^−1, day 9
Procedure: (§1) pooled fecal matter from naïve adult WT C57Bl/6 male mice was resuspended in 5 ml PBS in an anaerobic chamber (Coy Laboratory Products, 75% N2, 20% CO2, 5% H2), vortexed for 3 minutes and allowed to settle by gravity for 2 minutes. […] were added to a tube containing Chopped Meat Carbohydrate Broth, PR II (BD) and […] of a 5 mgml-1 saccharin solution or an equal volume of PBS. Every 3 days, 500 ml of culture were diluted to fresh medium containing saccharin or PBS. After 9 days, cultures were used for inoculation of germ-free mice.
Frozen fecal samples were processed for DNA isolation using the MoBio PowerSoil kit according to the manufacturer's instructions. […] the variable region 2 (V2) of the 16S rRNA gene were generated by using the following barcoded primers: Fwd 5′-[…]-3′ (SEQ ID NO: 3), Rev 5′-[…]-3′ (SEQ ID NO: 4). […] Reads were then processed using the QIIME (Quantitative Insights Into Microbial Ecology) analysis pipeline as described, version 1.8. Paired-end joined sequences were grouped into operational taxonomic units (OTUs) using the UCLUST algorithm and the greengenes database. Sequences with distance-based similarity of 97% or greater over median sequence length of 353 bp were assigned to the same OTU. Samples were grouped according to the treatment. […] P-values were FDR corrected for multiple hypothesis testing.

mice = test: Oral glucose tolerance test in mice drinking non-caloric artificial sweeteners (NAS); assay type: in vivo
Source text: (§2) C57Bl/6 WT adult male mice were randomly assigned (without blinding) to treatment groups and were given commercial artificial sweeteners (saccharin-, sucralose- or aspartame-based) or pure saccharin (Sigma Aldrich) in drinking water and fed a high-fat (HFD D12492, 60% Kcal from fat, Research Diets) or standard polysaccharide normal chow (NC) diet (Harlan-Teklad). Compared groups were always fed from the same batch of diet. For antibiotic treatment, mice were given a combination of ciprofloxacin (0.2 gl^−1) and metronidazole ([…]) or vancomycin (0.5 gl^−1) in their drinking water. All antibiotics were obtained from Sigma Aldrich. Adult male outbred Swiss-Webster mice (a widely used mouse strain in germ-free experiments) served as recipients for fecal transplants and were housed in sterile isolators (Park Biosciences). For fecal transplantation experiments, 200 mg of stool (from mouse pellets or human swabs) was resuspended in 5 ml of PBS under anaerobic conditions, vortexed for 3 minutes and allowed to settle by gravity for 2 minutes. Recipient mice were gavaged with 200 μl of the supernatant and maintained on standard NC diet and water throughout the experiment.
The following commercially available NAS were dissolved in mice drinking water to obtain a 10% solution: Sucrazit (5% saccharin, 95% glucose), Sucralite (5% Sucralose), Sweet'n Low Gold (4% Aspartame). 10% glucose (J.T. Baker) and 10% sucrose (Sigma Aldrich) solutions were used for controls. […] For experiments conducted with pure saccharin (Sigma Aldrich) a 0.1 mgml^−1 solution was used in order to meet with FDA defined ADI for saccharin in humans (5 mgkg^−1), according to the following calculation:
Mice were fasted for 6 hours during the light phase, with free access to water. In all groups of mice where the drinking regime was other than water, it was substituted for water for the period of the fasting and glucose or insulin tolerance test. Blood from the tail vein was used to measure glucose levels using a glucometer (Bayer) immediately before and 15, 30, 60, 90 and 120 minutes after oral feeding with 40 mg glucose (J.T. Baker) or intra-peritoneal injection with 0.1 Ukg^−1 Insulin (Biological Industries). Plasma fasting insulin levels were measured in sera collected immediately before the start of GTT using ELISA (Ultra Sensitive Mouse Insulin ELISA Kit, Crystal Chem).

[2] = test system: microbiota of germ-free recipient mice
Source text: as §2, §1
Frozen fecal samples were processed for DNA isolation using the MoBio PowerSoil kit according to the manufacturer's instructions. 1 ng of the purified fecal DNA was used for PCR amplification and sequencing of the bacterial 16S rRNA gene. ˜365 bp Amplicons spanning the variable region 2 (V2) of the 16S rRNA gene were generated by using the following barcoded primers: Fwd 5′-[…]-3′ (SEQ ID NO: 3), Rev 5′-[…]-3′ (SEQ ID NO: 4). […] Reads were then processed using the QIIME (Quantitative Insights Into Microbial Ecology) analysis pipeline as described, version 1.8. Paired-end joined sequences were grouped into operational taxonomic units (OTUs) using the UCLUST algorithm and the greengenes database. Sequences with distance-based similarity of 97% or greater over median sequence length of 353 bp were assigned to the same OTU. Samples were grouped according to the treatment. Analysis was performed at each taxonomical level (Phylum-genus+OTU level) separately. For each taxon, G test was performed between the different groups. P-values were FDR corrected for multiple hypothesis testing.

[3] = GF recipients of D7 vs D1 microbiome from human responder
[4] = GF recipients of saccharin-enriched culture, day 6, level 2

O=C1NS(=O)(=O)c2ccccc21 [saccharin]
Firmicutes relative abundance in stool culture ([1]; control 22%): 6% | Bacteroidetes phyla relative abundance in stool culture ([1]; control 70%): 89% | glucose tolerance (OGTT) (mice; C57Bl/6 mice on HFD, 0.1 mgml^−1 pure saccharin in drinking water vs water, from 5 weeks, p<0.0002): impaired glucose tolerance | glucose tolerance (OGTT) (mice; HFD-fed outbred Swiss Webster mice, 0.1 mgml^−1 pure saccharin, 5 weeks, p<0.03): significant glucose intolerance | decrease in Candidatus Arthromitus [2, 3]: ~10 fold | relative increase of Bacteroides fragilis [2, 3]: 20 fold | relative increase of Weissella ciboria [2, 3]: 20 fold | Saccharin Enriched D6: p_Bacteroidetes [2, 4]: 0.611 | Saccharin Enriched D6: p_Firmicutes [2, 4]: 0.3649 | Saccharin Enriched D6: p_Tenericutes [2, 4]: 0.02291 | Saccharin Enriched D6: p_Bacteroidetes; c_Bacteroidia ([2]; GF recipients, day 6, level 3): 0.6108 | Saccharin Enriched D6: p_Firmicutes; c_Bacilli ([2]; GF recipients, day 6, level 3): 0.3122 | Saccharin Enriched D6: p_Firmicutes; c_Clostridia ([2]; GF recipients, day 6, level 3): 0.05266 | Saccharin Enriched D6: p_Proteobacteria; c_Gammaproteobacteria ([2]; GF recipients, day 6, level 3): 0.0001278 | Saccharin Enriched D6: p_Tenericutes; c_Mollicutes ([2]; GF recipients, day 6, level 3): 0.02291 | Saccharin Enriched D6: c_Bacilli; o_Lactobacillales ([2]; GF recipients, day 6, level 4): 0.3116 | Saccharin Enriched D6: c_Bacteroidia; o_Bacteroidales ([2]; GF recipients, day 6, level 4): 0.6108 | Saccharin Enriched D6: c_Clostridia; o_Clostridiales ([2]; GF recipients, day 6, level 4): 0.05266 | Saccharin Enriched D6: c_Gammaproteobacteria; o_Enterobacteriales ([2]; GF recipients, day 6, level 4): 0.0001248 | Saccharin Enriched D6: c_Mollicutes; o_Anaeroplasmatales ([2]; GF recipients, day 6, level 4): 0.02291 | Saccharin Enriched D6: o_Anaeroplasmatales; f_Anaeroplasmataceae ([2]; GF recipients, day 6, level 5): 0.02291 | Saccharin Enriched D6: o_Bacteroidales; f_Bacteroidaceae ([2]; GF recipients, day 6, level 5): 0.467 | Saccharin Enriched D6: o_Bacteroidales; f_Porphyromonadaceae ([2]; GF recipients, day 6, level 5): 0.1379 | Saccharin Enriched D6: o_Bacteroidales; f_S24-7 ([2]; GF recipients, day 6, level 5): 7.066E−05 | Saccharin Enriched D6: o_Bacteroidales; f_[Odoribacteraceae] ([2]; GF recipients, day 6, level 5): 0.004319 | Saccharin Enriched D6: o_Clostridiales; f_ ([2]; GF recipients, day 6, level 5): 0.04275 | Saccharin Enriched D6: o_Clostridiales; f_Clostridiaceae ([2]; GF recipients, day 6, level 5): 0.005131 | Saccharin Enriched D6: o_Clostridiales; f_Dehalobacteriaceae ([2]; GF recipients, day 6, level 5): 0.0008389 | Saccharin Enriched D6: o_Clostridiales; f_Ruminococcaceae ([2]; GF recipients, day 6, level 5): 0.003365 | Saccharin Enriched D6: o_Enterobacteriales; f_Enterobacteriaceae ([2]; GF recipients, day 6, level 5): 0.0001248 | Saccharin Enriched D6: o_Lactobacillales; f_Lactobacillaceae ([2]; GF recipients, day 6, level 5): 0.3087 | Saccharin Enriched D6: o_Lactobacillales; f_Streptococcaceae ([2]; GF recipients, day 6, level 5): 0.0009772 | Saccharin Enriched D6: f_Anaeroplasmataceae; g_Anaeroplasma ([2]; GF recipients, day 6, level 6): 0.02291 | Saccharin Enriched D6: f_Bacteroidaceae; g_Bacteroides ([2]; GF recipients, day 6, level 6): 0.467 | Saccharin Enriched D6: f_Clostridiaceae; g_Candidatus Arthromitus ([2]; GF recipients, day 6, level 6): 0.005047 | Saccharin Enriched D6: f_Clostridiaceae; g_Clostridium ([2]; GF recipients, day 6, level 6): 4.209E−05 | Saccharin Enriched D6: f_Dehalobacteriaceae; g_Dehalobacterium ([2]; GF recipients, day 6, level 6): 0.0008389 | Saccharin Enriched D6: f_Enterobacteriaceae; g_ ([2]; GF recipients, day 6, level 6): 0.0001248 | Saccharin Enriched D6: f_Lachnospiraceae; g_[Ruminococcus] ([2]; GF recipients, day 6, level 6): 7.818E−05 | Saccharin Enriched D6: f_Lactobacillaceae; g_Lactobacillus ([2]; GF recipients, day 6, level 6): 0.3087 | Saccharin Enriched D6: f_Porphyromonadaceae; g_Parabacteroides ([2]; GF recipients, day 6, level 6): 0.1379 | Saccharin Enriched D6: f_Ruminococcaceae; g_ ([2]; GF recipients, day 6, level 6): 0.003112 | Saccharin Enriched D6: f_S24-7; g_ ([2]; GF recipients, day 6, level 6): 7.066E−05 | Saccharin Enriched D6: f_Streptococcaceae; g_Lactococcus ([2]; GF recipients, day 6, level 6): 0.0008509 | Saccharin Enriched D6: f_[Odoribacteraceae]; g_Odoribacter ([2]; GF recipients, day 6, level 6): 0.004319 | Saccharin Enriched D6: o_Clostridiales; f_; g_ ([2]; GF recipients, day 6, level 6): 0.04275
